Source: US10295537B2, “Biorecognition elements for rapid detection of biocontamination” (The United States of America, as represented by the …, priority 2017, dated 2019)
Ends that are not written are not given here.

Key:
[1] = test system: P. stutzeri cells; assay: Fluorometry of P. stutzeri cells labeled with peptide-QD525 conjugates; type: cell-based; conditions: emission peak at 525 nm, 1×10^9 P. stutzeri cells
Experimental: The emission peak fluorescence at 525 nm of 1×10^9 P. stutzeri cells labeled with peptide-QD525 conjugates was measured in a fluorometer and relative fluorescence units (“RFIU”) were compared (Table 6 and 7, above). Peptides OBP11 and OBP12 targeting OprF, and peptide OPP1 targeting Opr86 presented fluorescence levels that greatly surpassed the other selected peptides for the respective target. OPP1, OBP11, and OBP12 were selected for further characterization and validation.
(§1) Bacterial stocks for experimentation were prepared by harvesting overnight grown bacterial cells by centrifugation at 11000×g for 15 min (at 4° C.), washed once with 1×PBS, pH 7.2, and re-suspended in 1×PBS to a concentration of 1×10^9 cells/mL. Bacterial titers were determined by measuring optical density at 600 nm and confirmed by colony counting on LB agar plates. Cell pellets produced by centrifuging 1 mL of the 1×10^9 cells/mL stock were re-suspended in 38 μL of 1×PBS and 62 μL of 2.4 μM peptide-QD was added to a final concentration of 1.5 μM. Cells were incubated for 30 min at 25° C. Cell pellets were washed three-times with 0.5 mL PBS and re-suspended in 500 μL PBS for fluorescence assays and imaging. Dilutions ranging from 1×10^9 cells to 1×10^4 cells were prepared using standard bacteriological techniques and 0.5 mL samples were used for fluorescence measurements.
(§2) Emission spectra were obtained using Cary Eclipse Fluorimeter with excitation at 330 nm, scan rate of 120 nm/imin, and PMT voltage of 1000V. Spectra were corrected for background and dilution factor when appropriate.

[2] = test system: Opr86; assay: Solution biopanning against biotinylated Opr86 extracellular loop fragment, three rounds of selection; type: binding, P. aeruginosa; conditions: Bushnell-Haas pH 8.5 with 1% Jet-A
Experimental: Generally, solution-phase biopanning was carried out as described by the manufacturer (New England Biolabs, Ipswich, Mass.) with some modifications, including the changing of pH from 7.0 to 5.5 and 8.5 and adding 1% v/v of Jet A fuel. The first round of selection was carried out by diluting Ph.D.-7 bacteriophage library 100-fold in 0.1% Tris buffer saline plus Tween 20 (0.1% TBST) at the appropriate pH for selection plus fuel. Subsequently, the phage library was incubated with 1 μg of N-terminal biotinylated target protein fragment (OprF1: […] (SEQ. ID No. 1), OprF2: ADIKNLADFMK QYPSTSTT (SEQ. ID No. 2), Opr86: […] STP (SEQ. ID No. 3)) for 1 hr at 25° C. Phage-protein complexes were captured with 50 μL of streptavidin magnetic microbeads, unbound phages were removed, and the pellet sample washed 10-times with 1 mL of 1× Tris buffer saline (“TBS”) plus 0.05% TBST to remove weakly bound phage particles. Bound bacteriophages were eluted from the beads by lowering the pH (0.2 M Glycine-HCl, pH 2.2) while rotating gently for 10 min at 25° C. After neutralization with 1 M Tris-HCl, pH 9.1, eluted phages were amplified by infection of E. coli strain ER 2738 grown in Luria-Bertani (“LB”) broth medium until early-log phase (OD600 0.1-0.5). Titer of the amplified phage (more than 10^10 pfu/mL) was determined by infection into E. coli ER2738 and subsequent growth in selective medium containing X gal/IPTG. Amplified phages from round 1 were pre-cleared with streptavidin-coated magnetic microbeads (50 μL) to further remove non-specific binders and then used as the input phage for round 2 of selection. Enrichment of the bacteriophage pool was achieved by performing […] of selection under the appropriate pH plus jet fuel condition. Genomic DNA from individual clones was sequenced by GenScript (Piscataway, N.J.).
The particular region of the Opr86 extracellular loop of sequence […] (SEQ. ID No. 3) was chemically synthesized with a biotin capture element and used as target epitope for BRE development in solution biopanning in Bushnell-Haas, pH 8.5, supplemented with 1% Jet-A. Following the previously established procedure for OprF, several unique Opr86 peptide BREs (“OPPs”) were identified after three rounds of selection (Table 7, above).

[3] = test system: A. venetianus ATCC 31012; assay: Detection of bacteria recovered from spiked 1 L Jet A fuel with peptide-QD545 (LOD, fluorescence); type: cell-based; conditions: for LOD (CFU): 1.5 μM peptide-QD; for detection possible down to, in some instances: below reproducible LOD
Experimental: (§3) To test the applicability of the peptide BRE-QD chemistry in the detection of bacteria in fuel and characterize the LOD in such system, bacterial cells from 1 L jet fuel samples spiked with different levels of bacteria were recovered, labeled, and detected.
(§4) One liter Jet A fuel samples were amended with 1 mL of 1×PBS containing either A. venetianus ATCC 31012 or P. stutzeri at the appropriate test concentration was added to 1 L of Jet A fuel. The inoculated jet fuel samples were thoroughly mixed by vortex for 1 min and allowed to stand for 20 min to 30 min. To recover the cells, 1 mL of 1×PBS, named bacterial recovery solution (“BRS”), was added to the jet fuel samples, the samples shaken by hand, allowed stand for 5 min, and, then, 1 mL of the aqueous phase was collected using a long serological pipette. The 1 mL of solution with bacteria was centrifuged for 5 min at 11000×g, and washed three times with 1 mL of 1×PBS. Bacterial pellets were individually labeled using a final concentration 1.5 μM peptide-QD. The LOD was defined as the lowest concentration level that could be determined to be statistically different from QD labeled cells from the results of multiple testers. The actual cell level (colony-forming units, “CFU”) detected was determined by plating a portion of the sample after being subjected to the labeled procedure.
(§5) Cells in the 1 L of fuel were recovered with 1 mL of BRS. Efficient labeling of the bacteria was indicated by high levels of fluorescence detected from the cell wall by fluorescence microscopy (FIG. 13 and Table 10, below). FIG. 14 is a similar image but of fungus (Hormoconis) labeled by peptide-QD605. The LOD was reliably determined from assays performed by multiple testers.

[4] = test system: P. stutzeri; assay: as above; type: cell-based; conditions: for LOD (CFU) / Fluorescence (RFU): 1 L Jet A; for LOD (CFU): 1.5 μM peptide-QD; for detection possible down to, in some instances: below reproducible LOD; for Fluorescence (RFU): at LOD
Experimental: as §3, §4, §5

[5] = test system: Gram negative (P. stutzeri, P. alkaligenes, P. aeruginosa, A. venetianus) and Gram positive (Arthrobacter sp., Lynsinibacillus sp.) bacteria; assay: Fluorescence microscopy of fuel degrading bacteria labeled with peptide BRE-QD545; type: cell-based; conditions: 1×10^9 cells, QD545, 1.5 μM
Experimental: (§6) To characterize the specificity of the peptide BRE-QD545 conjugates for the intended bacterial groups, fluorescence imaging and fluorometric analysis were performed using different Gram negative and Gram positive fuel degrading bacteria. As such, cultures comprising 1×10^9 cells of Gram negative bacteria (P. stutzeri, P. alkaligenes, P. aeruginosa and A. venetianus) and Gram positive bacteria (Arthrobacter sp. and Lynsinibacillus sp.) were labeled with OPP1, OBP11 and OBP12 biofunctionalized QD545 and visualized using fluorescence microscopy (FIGS. 5-10) and the fluorescence quantified using a fluorometer (FIG. 11).
as §1
10 μL of the prepared sample was placed on a microscope slide, covered with a coverslip, and visualized on an Nikon Eclipse Ti-E inverted microscope equipped with X-Cite LED lamp, a fluorescence filter set (a bandpass exciter 405 nm and a longpass emission filter), a 1.25-numerical-aperture oil-immersion objective (DPlan 100×, Nikon). Images were captured by Nikon DS-sCMOS camera.

[6] = test system: Gram negative bacteria (A. venetianus and Pseudomonas spp.); assay: Fluorometry of fuel degrading bacteria labeled with peptide-QD545 conjugates (FIG. 11); type: cell-based; conditions: for detection of Gram negative bacteria by fluorometer: 1×10^9 cells, QD545 conjugates, FIG. 11
Experimental: as §6, §1, §2

[7] = biological target: biotinylated bovine serum albumin (BSA) (Bos taurus, UniProt P02769); assay: Biopanning against biotinylated BSA to identify target-unrelated peptides; type: binding; conditions: phage displaying the peptide, round 3
Chain of biotinylated bovine serum albumin (BSA) (P02769 25-607): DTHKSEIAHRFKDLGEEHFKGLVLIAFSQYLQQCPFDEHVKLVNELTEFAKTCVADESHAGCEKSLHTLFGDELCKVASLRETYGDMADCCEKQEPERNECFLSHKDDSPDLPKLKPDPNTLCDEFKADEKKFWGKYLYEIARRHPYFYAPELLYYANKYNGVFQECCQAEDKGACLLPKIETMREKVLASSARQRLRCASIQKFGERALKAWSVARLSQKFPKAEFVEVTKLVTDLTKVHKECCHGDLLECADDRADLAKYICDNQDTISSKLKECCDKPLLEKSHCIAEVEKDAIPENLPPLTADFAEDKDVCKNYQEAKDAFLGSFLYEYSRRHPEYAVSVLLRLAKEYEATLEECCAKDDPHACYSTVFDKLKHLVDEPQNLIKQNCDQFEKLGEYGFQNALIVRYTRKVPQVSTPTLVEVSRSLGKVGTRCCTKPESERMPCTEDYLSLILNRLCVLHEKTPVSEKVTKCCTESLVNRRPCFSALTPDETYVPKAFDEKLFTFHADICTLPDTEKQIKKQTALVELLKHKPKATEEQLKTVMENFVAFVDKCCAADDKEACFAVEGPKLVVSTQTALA
Text: The phage library was then screened to identify target-unrelated peptides by using biotinylated bovine serum albumin (“BSA”) as a target for biopanning.

NMTNPPP (Artificial sequence obtained through biopanning.) [OBP6]
Fluorescence (RFU) [1]: 2080 ± 280 RFU

I I T M K R R (IITMKRR; Artificial sequence obtained through biopanning.) [OPP5, Opr86 peptide BRE]
Fluorescence (RFU) [1]: 4408 ± 225 RFU
% Abundance [2]: 3%

QD545-OBP11: peptide OBP11 conjugated to quantum dot QD545 (PIKTNRK; also: conjugated to quantum dot QD545)
LOD [3]: 5×10^5 CFU/mL of BRS
LOD (CFU) ([3]; 1 L Jet A): 5 × 10^5 CFU
detection possible down to, in some instances [3]: 5×10^4 CFU/mL of BRS
LOD [4]: 5×10^5 CFU/mL of BRS
LOD (CFU) [4]: 5 × 10^5 CFU
detection possible down to, in some instances [4]: 5×10^4 CFU/mL of BRS

PIKTNRK (Artificial sequence obtained through biopanning.) [OBP11]
Fluorescence (RFU) [1]: 5308 ± 501 RFU
labeling of bacteria in fluorescence micrographs [5]: specifically labeled Gram negative bacteria but not the Gram positive bacteria
detection of Gram negative bacteria by fluorometer [6]: able to detect all Gram negative bacteria tested

QMLLRLP (Artificial sequence obtained through biopanning.) [OBP9]
Fluorescence (RFU) [1]: 3338 ± 590 RFU

L P S T I H R (LPSTIHR; Artificial sequence obtained through biopanning.) [OPP3, Opr86 peptide BRE]
Fluorescence (RFU) [1]: 2251 ± 63 RFU
% Abundance [2]: 2%

QD545-OBP12: peptide OBP12 conjugated to quantum dot QD545 (PKRTPRH; also: conjugated to quantum dot QD545)
LOD [3]: 5×10^5 CFU/mL of BRS
LOD (CFU) ([3]; 1 L Jet A): 5 × 10^5 CFU
detection possible down to, in some instances [3]: 5×10^4 CFU/mL of BRS
LOD [4]: 5×10^5 CFU/mL of BRS
LOD (CFU) [4]: 5 × 10^5 CFU
Fluorescence (RFU) [4]: 12,205 RFU
detection possible down to, in some instances [4]: 5×10^4 CFU/mL of BRS

PKRTPRH (Artificial sequence obtained through biopanning.) [OBP12]
Fluorescence (RFU) [1]: 6443 ± 957 RFU
labeling of bacteria in fluorescence micrographs [5]: specifically labeled Gram negative bacteria but not the Gram positive bacteria
detection of Gram negative bacteria by fluorometer [6]: able to detect all Gram negative bacteria tested
LOD of P. stutzeri compared among all the BREs ([6]; P. stutzeri): highest LOD

M H N L N L L (MHNLNLL; Artificial sequence obtained through biopanning.) [OPP2, Opr86 peptide BRE]
Fluorescence (RFU) [1]: 1847 ± 52 RFU
% Abundance [2]: 2%

QITLRST (Artificial sequence obtained through biopanning.) [OBP7]
Fluorescence (RFU) [1]: 2625 ± 543 RFU

QD545-OPP1: peptide OPP1 conjugated to quantum dot QD545 (PRIRKSH; also: conjugated to quantum dot QD545)
LOD [3]: 5×10^4 CFU/mL of BRS
LOD (CFU) ([3]; 1 L Jet A): 5 × 10^5 CFU
Fluorescence (RFU) ([3]; 1 L Jet A, at LOD): 773 RFU
detection possible down to, in some instances [3]: 5×10^3 CFU/mL of BRS
LOD [4]: 5×10^4 CFU/mL of BRS
LOD (CFU) [4]: 5 × 10^5 CFU
Fluorescence (RFU) [4]: 820 RFU
detection possible down to, in some instances [4]: 5×10^3 CFU/mL of BRS
detection of Gram negative bacteria by fluorometer [6]: high fluorescence levels with all Gram negative bacteria tested

RRSNSQL (Artificial sequence obtained through biopanning.) [OBP4]
Fluorescence (RFU) [1]: 4520 ± 473 RFU

L R P L M N R (LRPLMNR; Artificial sequence obtained through biopanning.) [OPP4, Opr86 peptide BRE]
Fluorescence (RFU) [1]: 1383 ± 74 RFU
% Abundance [2]: 3%

R K K S R I R (RKKSRIR; Artificial sequence obtained through biopanning.) [OPP6, Opr86 peptide BRE]
Fluorescence (RFU) [1]: 4126 ± 98 RFU
% Abundance [2]: 2%

P R I R K S H (PRIRKSH; Artificial sequence obtained through biopanning.) [OPP1, Opr86 peptide BRE]
Fluorescence (RFU) [1]: 12258 ± 2060 RFU
% Abundance [2]: 3%
labeling of bacteria in fluorescence micrographs [5]: specifically labeled Gram negative bacteria but not the Gram positive bacteria

IQTNPTM (Artificial sequence obtained through biopanning.)
cross-reaction with BSA [7]: cross-react with BSA
